Assay results from patent publication US20050256132A1, “Use of ER selective NF-kB inhibitors for the treatment of sepsis” (priority 2003, published 2005).
Entries after “also recorded” stand apart in the source; their conditions may differ.

Key:
CK = CK activity in lysate of ERα expressing HAECT-1 cells; format: cell-based, human
Protocol: (A) The effect of compound 67 on NF-κB mediated luciferase reporter activity in HAECT-1 cells expressing ERα. […] (C) The effect of compound 67 on the human IL-6 promoter luciferase reporter activity in HAECT-1 cells expressing either ERα (squares) or ERβ (diamonds). (D) The remaining lysate from (A) was used to determine CK activity.
HAECT-1 cells (Chadwick C C, et al., Proc Natl Acad Sciences, 2005, 102(7): 2543-2548) were cultured in EGM (GIBCO, Rockville, Md.) containing 10% FBS, 1% GlutaMAX and 0.1% Antimycotic-Antibiotic in Falcon T-175 culture flasks at 34° C. in 5% CO2 and infected for four hours with Ad5-wt-ER virus. After overnight recovery, the cells were infected for 2 hours with the Ad5-3x(NFκB).Luc or Ad5-IL6.Luc virus. Compound 67 and 2 ng/ml IL-1 were added to the cells for 15-20 h and the cell lysate was assayed for luciferase activity and evaluated for CK expression (Stanbio Laboratories, Texas). The values are reported as mean±SEM with n=4 from at least 3 independent experiments.

Listeria monocytogenes = assay: Murine Listeria model, cytokine response analysis; format: in vivo, BALB/c mice; settings: 10^5 cells/animal iv, 24 hours after challenge, vs control
Protocol: Corn oil and Tween-stabilized vehicle was used as the control. All other reagents used in the experiments were purchased commercially from Sigma (St. Louis, Mo.) except for the cytokine assays which were purchased from Biosource (Camarillo, Calif.). The cytokines were measured by enzyme-linked immunoassay according to the manufacturer's instructions. The limits of detection of each assay are as follows: tumor necrosis factor α—3 pg/ml, interleukin-6—3 pg/ml, interferon gamma—1 pg/ml, monocyte chemo attractant protein—9 pg/ml. Endotoxin values were measured using a quantitative turbidometric assay (LAL5000) (Associates of Cape Cod, Woods Hole, Mass.).
The listeria model of systemic infection in mice was performed as previously described (Opal S. M., et al., Shock 15(4):285-290, 2001). Compound 67 was administered orally via an orogastric tube to BALB/c mice in an increasing dose schedule of from 1.5 mg/kg to 50 mg/kg. The BALB/c mice were purchased from Charles River Laboratories (Wilmington, Mass.). […]
For the cytokine response analysis, a standard dose of 10^5 cells/animal was administered intravenously, and cytokine measures were performed 24 hours after the intravenous challenge. […] The LD50 was calculated by the method of Reed and Meuch (Opal S. M., et al., J Infect Dis 187:70-76, 2003.).

[1] = system: Pseudomonas aeruginosa 12.4.4; assay: Neutropenic rat model of Pseudomonas sepsis; format: in vivo, Sprague-Dawley rats
Protocol: The neutropenic rat model of pseudomonas sepsis has been previously described (Opal S M, et al., Shock 15(4):285-290, 2001). The experiments were conducted in specific pathogen-free female, Albino, Sprague-Dawley rats (Charles River Breeding Laboratories, Wilmington, Mass.) weighing 150-200 grams at the beginning of the experiments. Animals were treated with cefamandole (100 mg/kg intramuscularly daily) followed by oral colonization with Pseudomonas aeruginosa 12.4.4 (immunotype 6, A. McManus, San Antonio, Tex.) by orogastric feeding of 10^6 bacterial colony forming units at time 0, 48, and 96 hours.
Cyclophosphamide (Bristol-Myers, Evansville, Ind.) was given intraperitoneally at a dose of 150 mg/kg at time 0, and 50 mg/kg interperitoneally at 72 hours. Animals were followed daily with clinical examination of body temperature using a non-contact, digital, infrared thermometer (Horiba Instruments-Marksen Sciences, Phoenix, Ariz.) and body weight. Compound 67 (50 mg/kg) or corn oil control (n=12 in both groups) was administered orally by orogastric feeding beginning on day 4 after the first dose of cyclophosphamide and continuing for 8 days for the survival study. In an additional set of experiments, compound 1 (50 mg/kg) or control (n=8 in both groups) was administered every other day (day 4, 6, 8) and animals were sacrificed at day 8 for histopathologic studies. The distal 10 centimeters of ileum were resected and used for histopathological examination. The lumen was washed with phosphate buffered saline to remove residual particulate material prior to analysis and fixation. The mucosal surface epithelium was sampled for electromicroscopic studies and placed in gluteraldehyde fixative at the time of sacrifice. A 10 mm segment of ileal tissue was utilized for mucosal mass measurement.
Animals were assessed clinically and pathologically by daily body weight, body temperature, presence of bacteremia, circulating endotoxin levels, and pathologic evidence of damage to the gastrointestinal epithelium and liver by light microscopy and electron microscopy. The investigators performing the animal experiments were not blinded to the treatment assignment; however, an independent pathologist who was unaware of the treatment assignment for each animal performed the light microscopy and electron microscopy interpretation. A pathological injury scale of 0-4 was used to assess the degree of mucosal thinning, ulceration, and disruption.

[2] = Cecal ligation and puncture model in mice; format: in vivo, BALBc mice
Protocol: The cecal ligation puncture (“CLP”) procedure was derived from a modification of standard methods previously described (Opal S M, et al., Shock 15(4):285-290, 2001). Female, non-pregnant, specific pathogen-free, Albino BALBc mice (20-25 gm) were used in the experiment. […] Animals were allowed to eat and drink sterile water on an ad libitum basis until 12 h before surgery when food was withheld until after the surgical procedure.
Anesthetized animals (methoxyflurane, Mallinckodt Veterninary Inc., Mundeline, Ill.) had the abdominal skin shaved and a midline, abdominal incision was made. The cecum was exteriorized and distended using intraluminal contents from the colon. The cecum was then ligated below the ileocecal valve and punctured twice using a 23-gauge sterile needle. The cecum was returned to the peritoneal cavity and the transversalis fascia was closed along with the skin incision. The skin incision was covered with topical bacitracin ointment. The animals were given a single […] dose of trovafloxacin (20 mg/kg IM) immediately post-operatively and a 1-mL subcutaneous dose of PBS was given as fluid resuscitation. […] All animals underwent necropsy examination for histological evidence of organ injury, pathology scoring of intestinal mucosa, and quantitative bacteriology.
Differences in survival time between groups were analyzed by Kaplan-Meier survival plots and log-rank testing. Other parameters were measured using a Mann-Whitney U-Test for 2 groups or the Kruskal-Wallis one way analysis of variance for 3 or more groups. A p value of <0.05 was considered significant. All data is presented as mean and standard deviation.

COc1ccccc1[C@H](c1cccc2ccccc12)[C@@](C)(C#N)C(=O)N1CCC(c2cccc(C(F)(F)F)c2)CC1 [Example 67, (S,S)-3-(2-methoxyphenyl)-2-methyl-3-(1-naphthyl)-2-({4-[3-(trifluoromethyl)phenyl]piperidin-1-yl}carbonyl)propanenitrile]
elevation of CK activity (CK; at 1 μM): approximately 20% | stimulation of CK expression (CK; compared with E2, FIG. 1D): did not stimulate CK expression comparable to E2 | cytokine levels (TNF, IL-6, MCP-1, interferon gamma) in bacteremic animals (Listeria monocytogenes): unchanged | electron microscopy of small intestinal enterocyte architecture, tight junctions, organelle structure ([1]; 50 mg/kg): greater preservation | prevention of lethality (Kaplan-Meier survival) ([1]; 50 mg/kg orally daily from day 4, FIG. 2): highly effective in the prevention of lethality | small bowel mucosal mass ([1]; 50 mg/kg, p<0.01 vs control, FIG. 4B): 76±21 mg/10 cm segment | levels of bacteremia and endotoxemia ([1]; day 6 after first cyclophosphamide dose, FIG. 3): Reduced levels | histopathologic injury score of gastrointestinal mucosa ([1]; scale 0-4, 50 mg/kg, day 8, p=0.02 vs control, FIG. 4A): 0.6±0.1 | survival vs vehicle control (Kaplan-Meier) ([2]; 50 mg/kg at 0, 24 and 48 hours after CLP, 7 days, FIG. 5): significant survival advantage; also recorded: significantly greater than control | histopathologic scores of small bowel intestinal mucosa ([2]; 50 mg/kg, p<0.05 vs vehicle control): significant preservation of mucosal integrity | systemic cytokine release and endotoxin levels ([2]; 50 mg/kg, vs vehicle control, p=ns): did not differ
